Like-named read-outs stand apart in the source and are kept apart here.
What was measured:
[1] = biological target: T1, recombinant human 72 kD type IV collagenase (Oncologix), APMA activated (Homo sapiens, UniProt P08253); assay: gelatinase assay, Example 11; type: biochemical
T1 construct: purchased Oncologix
T1 sequence (P08253 110-660): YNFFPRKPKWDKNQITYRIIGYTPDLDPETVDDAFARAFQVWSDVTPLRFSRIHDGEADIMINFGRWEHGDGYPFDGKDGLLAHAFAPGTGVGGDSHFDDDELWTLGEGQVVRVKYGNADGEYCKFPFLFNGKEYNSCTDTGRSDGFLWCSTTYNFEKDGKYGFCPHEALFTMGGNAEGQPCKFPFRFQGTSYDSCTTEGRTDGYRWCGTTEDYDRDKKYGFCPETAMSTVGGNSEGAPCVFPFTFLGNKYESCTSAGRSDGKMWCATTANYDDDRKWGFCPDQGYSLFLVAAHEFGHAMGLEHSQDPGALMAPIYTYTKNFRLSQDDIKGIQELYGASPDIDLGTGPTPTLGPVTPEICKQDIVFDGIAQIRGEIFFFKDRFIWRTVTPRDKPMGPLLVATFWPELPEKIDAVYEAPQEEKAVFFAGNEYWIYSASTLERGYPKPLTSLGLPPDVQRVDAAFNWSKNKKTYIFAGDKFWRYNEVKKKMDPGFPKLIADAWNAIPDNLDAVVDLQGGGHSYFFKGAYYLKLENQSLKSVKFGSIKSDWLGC
Protocol: NET-660 Collagen (Rat Type I), N-[Propionate-2-3-^3 H] Propionylated (NEN Dupont) with a specific activity of 0.4 mCi/mg, rat type I Collagen (Sigma), P-aminophenylmercuric acetate, APMA (Sigma), recombinant human 72 kD type IV collagenase (Oncologix) with a specific activity of at least 1000 μg collagen digested/hour/μg enzyme, collagenase buffer (50 mM Tris-HCl, 5 mM CaCl2, 200 mM NaCl, 0.02% Brij-35, pH 7.6), bovine serum albumin (BSA), 250 mM EDTA, and 10% TCA+0.7% tannic acid. The substrate is prepared by mixing the ^3 H collagen with the cold collagen at a 2/3 ratio and diluting in the collagenase buffer. The final assay concentration of the ^3 H collagen is 1% or between 20,000 to 40,000 cpm. Inhibitors are prepared just prior to use by dissolving in DMSO (final assay concentration<1%) or collagenase buffer.
The 72 kD collagenase enzyme is activated with 0.5 mM APMA for 30 min. at 37° C. and 10 ng of enzyme per assay is used. Inhibitors are preincubated with activated enzyme for 2 hours at 37° C. in collagenase buffer. Substrate is then added to enzyme inhibitor mix and the assay is run for 20 min at 37° C. […] Undigested substrate is precipitated with the TCA/tannic acid solution and soluble counts are determined in a scintillation counter.

L1210 leukemia = settings: 13 doses at 30 mg/kg; cited from earlier work
retired bred BALB/C mice = assay: septic shock induced by i.v. endotoxin (E. coli 026:B6); type: in vivo; settings: razoxane 100 μg/g i.p. before 200 μg endotoxin i.v.; heparin
Protocol: Two retired bred BALB/C mice were injected with 100 μg of endotoxin and 3 units of heparin i.v., followed by 10 units heparin subcutaneously. Another two mice were treated the same except with 200 μg of endotoxin. All died within 24 h.
Six retired bred BALB/C mice were treated with razoxane (100 μg/g body weight i.p.). The mice were then injected with 200 μg of endotoxin and 3 units of heparin i.v., followed by 10 units heparin subcutaneously.

Structure (SMILES)	IC50 ([1]; 10 ng enzyme, 2 hours preincubation at 37° C., 20 min assay, 3H collagen substrate, read-out: IC50 for inhibition of the 72 kD collagenase type IV) [µM]	increase in survival time (L1210 leukemia) [%]	IC50 [1] [µM]	mice surviving more than 24 h (retired bred BALB/C mice)
CC1(C)O[C@H]2C[C@H](N3CC(=O)NC(=O)C3)[C@@H](N3CC(=O)NC(=O)C3)C[C@@H]2O1 (relative stereo) [Compound 80, (3aα, 5β, 6α, 7aβ)-4,4'-(hexahydro-2,2-dimethyl-1,3-benzodioxole-5,6-diyl)bis(2,6-piperazinedione)]	1.8			
CC(CN1CC(=O)NC(=O)C1)N1CC(=O)NC(=O)C1 (stereo not shown) [razoxane]		137	44	Two out of six
